According to patent EP4813991A1 (iLeadBMS Co., Ltd., priority 2023, dated 2025):

Legend:
Type in all cases: cell-based
SNU-1 = experiment: Gastric cancer cell proliferation inhibitory activity (CellTiter Glo), SNU-1; settings: Homo sapiens, SNU1, 72 hours, relative IC50
Description: (§1) Experiments were performed using four types of gastric cancer cell lines (AGS, SNU-1, KATO-III, and MKN45) to measure the cell proliferation inhibitory ability of each Example compound. For AGS cells, 90 µL of cell suspension was dispensed into a 96-well plate using F-12K (Gibco) medium containing 10 % FBS, followed by incubation in a cell incubator at 37 °C and 5 % CO2. For SNU-1 and MKN45 cells, 90 µL of cell suspension was dispensed into a 96-well plate using RPMI1640 (Gibco) medium containing 10 % FBS, followed by incubation in a cell incubator at 37 °C and 5 % CO2. For KATO-III cells, 90 uL of cell suspension was dispensed into a 96-well plate using IMDM (Gibco) medium containing 10 % FBS, followed by incubation in a cell incubator at 37 °C and 5 % CO2. The next day, each Example compound dissolved and diluted in DMSO across 9 concentration ranges and a DMSO control group were added at 10 µL to each 96-well plate and treated for 72 hours. After completion of the compound treatment, 100 µL of CellTiter Glo (Promega) reagent was added to each well of the 96-well plate, followed by shaking for 10 minutes and standing at room temperature for 10 minutes. Luminescence signals were measured after inserting the 96-well plate into an Envision plate reader (PerkinElmer). Relative IC50 values were calculated by fitting a dose-response curve using XLfit (IDBS Ltd) software.
(§2) The gastric cancer cell proliferation inhibitory activities of the Example compounds measured by the method described above were evaluated according to the following criteria, and the results are presented in Table 16.

[1] = system: MDA-MB-231 breast cancer cells; experiment: Proliferation inhibitory activity assay against MDA-MB-231 breast cancer cells; settings: Homo sapiens, 72 hours, CellTiter Glo, relative IC50
Procedure, shortened: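 Cells grown in L-15 with 10% FBS at 37 °C, 0% CO2, then exposed next day to compounds at 9 concentrations (DMSO vehicle) for 72 h. Viability read by CellTiter Glo luminescence; relative IC50 from dose-response curve fit.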

HCC70 cells = experiment: Breast cancer cell proliferation inhibitory activity, HCC70; settings: Homo sapiens, 72 hours, CellTiter Glo, relative IC50
Description: Experiments were conducted using three types of breast cancer cell lines to measure the cell proliferation inhibitory ability of each Example compound. For HCC70 cells, 100 µL of cell suspension was dispensed into a 96-well plate using RPMI1640 (Invitrogen) medium containing 10 % FBS, followed by incubation in a cell incubator at 37 °C and 5 % CO2. For BT-20 cells, 100 µL of cell suspension was dispensed into a 96-well plate using EMEM (Invitrogen) medium containing 10 % FBS, followed by incubation in a cell incubator at 37 °C and 5 % CO2. For MDA-MB-436 cells, 100 µL of cell suspension was dispensed into a 96-well plate using L-15 (Invitrogen) medium containing 10 % FBS, followed by incubation in a cell incubator at 37 °C and 0 % CO2. The next day, each Example compound dissolved and diluted in DMSO across 9 concentration ranges and a DMSO control group were treated on the cells for 72 hours. After completion of the compound treatment, 100 µL of CellTiter Glo (Promega) reagent was added to each well of the 96-wellplate, followed by shaking for 10 minutes and standing at room temperature for 10 minutes. After inserting the 96-well plate into an Envision plate reader (PerkinElmer), luminescence signals were measured. Relative IC50 values were calculated by fitting a dose-response curve using XL fit (IDBS Ltd) software.
The breast cancer cell proliferation inhibitory activities of the Example compounds measured by the method described above were evaluated according to the following criteria, and the results are presented in Table 15.

Cyclin K = experiment: Analysis of Cyclin K degradation ability in HCC70 breast cancer cells (western blot); settings: 8 hours, compared to the negative control group (DMSO), FIGs. 1 to 3
Description: In order to confirm the Cyclin K degradation ability of the Example compounds, HCC70 breast cancer cells and MKN45 gastric cancer cells were cultured in RPMI-1640 medium supplemented with 10 % FBS, and then the cells were collected to prepare cell suspensions. The HCC70 breast cancer cell suspension was dispensed at a cell number of 2.0 X 10^6 per 6-well and cultured in a 5 % CO2 cell incubator at 37 °C for 24 hours, and the MKN45 gastric cancer cell suspension was dispensed at a cell number of 5.0 X 10^6 per 6-well and cultured in a 5 % CO2 cell incubator at 37 °C for 24 hours. The next day, each Example compound dissolved and diluted in DMSO across 4 to 5 concentration ranges and a negative control group (DMSO-treated group) were added to the 6-wells, and the HCC70 breast cancer cells were treated for 8 hours while the MKN45 gastric cancer cells were treated with the compounds for 8 hours or 24 hours. After completion of the compound treatment, the medium was removed, each cell was washed with PBS, and then 100 µL of RIPA buffer for cell lysis was added to each 6-well to collect cell lysates. The protein concentration of the cell lysates was quantified by the […], and loading buffer was added to adjust the protein concentration to 30 µg, followed by reaction at 85 °C for 10 minutes, centrifugation, and standing at room temperature. After electrophoresis on a 4-12 % Bis-Tris gel, proteins were transferred to a nitrocellulose membrane. Primary antibodies, Cyclin K (1:1000, Bethyl Lab) and Vinculin (1:1000, Sigma), were attached to the membrane, respectively, and then labeled using a secondary antibody (1:10000, LI-COR).

KATO-III cells = experiment: Gastric cancer cell proliferation inhibitory activity (CellTiter Glo), KATO-III; settings: Homo sapiens, KATO III, 72 hours, relative IC50
Description: as §1, §2

MKN45 cells = experiment: Gastric cancer cell proliferation inhibitory activity (CellTiter Glo), MKN45; settings: Homo sapiens, MKN-45, 72 hours, relative IC50
Description: as §1, §2

In the case of CN1CCN(c2cc(NCc3nc4ccc(F)c(F)c4[nH]3)c3ncc(C(F)(F)F)n3n2)CC1 [Example 8, N-((6,7-difluoro-1H-benzo[d]imidazol-2-yl)methyl)-6-(4-methylpiperazin-1-yl)-3-(trifluoromethyl)imidazo[1,2-b]pyridazin-8-amine], the IC50 (SNU-1) is reported as ≤ 200 nM, the IC50 [1] is reported as ≤ 50 nM and the IC50 (HCC70 cells) is reported as ≤ 50 nM. The “Cyclin K degradation ability” value (Cyclin K) was “strongly degrade Cyclin K”, the IC50 (KATO-III cells) was ≤ 200 nM and the IC50 (MKN45 cells) was ≤ 200 nM.
For CN1CCN(c2cc(NCc3nc4cc(Cl)c(Cl)cc4[nH]3)c3ncc(C(F)(F)F)n3n2)CC1 [Example 29, N-((5,6-dichloro-1H-benzo[d]imidazol-2-yl)methyl)-6-(4-methylpiperazin-1-yl)-3-(trifluoromethyl)imidazo[1,2-b]pyridazin-8-amine], the IC50 (SNU-1) was ≤ 200 nM, the IC50 [1] was ≤ 50 nM and the IC50 (HCC70 cells) was ≤ 50 nM. For the same compound, the IC50 (KATO-III cells) was ≤ 200 nM and the IC50 (MKN45 cells) was ≤ 200 nM.
Nc1ncc(-c2cc(NCc3nc4cc(Cl)c(Cl)cc4[nH]3)c3ncc(C(F)(F)F)n3n2)cn1 [Example 40] was tested, and the IC50 [1] was ≤ 50 nM and the “Cyclin K degradation ability” value (Cyclin K) was “strongly degrade Cyclin K”.
In the case of N#CC1CN(c2cc(NCc3nc4cc(Cl)c(Cl)cc4[nH]3)c3ncc(C(F)(F)F)n3n2)C1 [Example 30, 1-(8-(((5,6-dichloro-1H-benzol[d]imidazol-2-yl)methyl)amino)-3-(trifluoromethyl)imidazo[1,2-b]pyridazin-6-yl)azetidine-3-carbonitrile], the IC50 (SNU-1) is reported as ≤ 200 nM, the IC50 [1] is reported as ≤ 50 nM and the IC50 (HCC70 cells) is reported as ≤ 50 nM. The “Cyclin K degradation ability” value (Cyclin K) was “strongly degrade Cyclin K”, the IC50 (KATO-III cells) was ≤ 200 nM and the IC50 (MKN45 cells) was ≤ 200 nM.
